{"source": "patent US20210254272A1", "about": "“TEXTILES HAVING ANTIMICROBIAL PROPERTIES” (Livinguard AG, priority 2015, published 2021)", "tested_on": "E. coli (ATCC 25922)", "test": "AATCC Test Method 100-2012 antibacterial activity of the treated textile, after 25 washes and 12 abrasion cycles, contact time 60 minutes", "assay_type": "cell-based", "details": "for Log reduction of antimicrobial performance: 1% o.w.f; for Log reduction of antimicrobial performance in 100 GSM Polyester fabric / Log reduction of antimicrobial performance in 100 GSM cotton fabric / Log reduction of antimicrobial performance in 300 GSM Polyester fabric / Log reduction of antimicrobial performance in 300 GSM cotton fabric / Performance Test-Log reduction of antimicrobial performance: 2 min; for Performance Test-Log reduction of antimicrobial performance: pad process, single agent 5 gm/lit", "description": "The antibacterial activity of the textile was tested in accordance with AATCC Test Method 100-2012. Prior to the test, the fabric was cut into coupons of 2×4 inches and washed separately 25 times, and exposed to 12 abrasion cycles, as per US EPA protocol 90072PA4 (described further below). The tests were made against E. coli (ATCC 25922). Contact time was 60 minutes, after inoculating with 10^8 CFU per coupon.", "key": {"[1]": {"details": "exhaust 80° C., 60 min, curing 180° C., dosage 0.1% o.w.f"}, "[2]": {"details": "exhaust 80° C., 60 min, curing 180° C., dosage 0.2% o.w.f"}, "[3]": {"details": "exhaust 80° C., 60 min, curing 180° C., dosage 0.5% o.w.f"}, "[4]": {"details": "exhaust 80° C., 60 min, curing 180° C., dosage 0.8% o.w.f"}, "[5]": {"details": "exhaust 80° C., 60 min, curing 180° C., dosage 1.0% o.w.f"}}}
{"substance": "Silver", "values": [{"measurement": "Log reduction of antimicrobial performance of each active ingredient", "setting": "exhaust 60° C., solution dosage 1% o.w.f, process time 60 min", "result": 1.1, "unit": "Log"}, {"measurement": "Log reduction of antimicrobial performance of each active ingredient", "setting": "exhaust 60° C., solution dosage 1% o.w.f, process time 90 min", "result": 1.3, "unit": "Log"}, {"measurement": "Log reduction of antimicrobial performance of each active ingredient", "setting": "exhaust 60° C., solution dosage 1% o.w.f, process time 120 min", "result": 1.5, "unit": "Log"}, {"measurement": "Log reduction of antimicrobial performance of each active ingredient", "setting": "exhaust 60° C., solution dosage 1% o.w.f, process time 180 min", "result": 1.8, "unit": "Log"}, {"measurement": "Log reduction of antimicrobial performance of each active ingredient", "setting": "exhaust 60° C., solution dosage 1% o.w.f, process time 240 min", "result": 1.75, "unit": "Log"}, {"measurement": "Log reduction of antimicrobial performance", "setting": "exhaust 80° C., 60 min, curing 170° C., curing dwell time 0.5 min", "result": 0.2, "unit": "Log"}, {"measurement": "Log reduction of antimicrobial performance", "setting": "exhaust 80° C., 60 min, curing 170° C., curing dwell time 1.0 min", "result": 0.5, "unit": "Log"}, {"measurement": "Log reduction of antimicrobial performance", "setting": "exhaust 80° C., 60 min, curing 170° C., curing dwell time 1.5 min", "result": 0.7, "unit": "Log"}, {"measurement": "Log reduction of antimicrobial performance", "setting": "exhaust 80° C., 60 min, curing 170° C., curing dwell time 2.0 min", "result": 1.6, "unit": "Log"}, {"measurement": "Log reduction of antimicrobial performance", "setting": "exhaust 80° C., 60 min, curing 170° C., curing dwell time 2.5 min", "result": 1.1, "unit": "Log"}, {"measurement": "Log reduction of antimicrobial performance", "setting": "exhaust 80° C., 60 min, curing 170° C., curing dwell time 3.0 min", "result": 0.7, "unit": "Log"}, {"measurement": "Log reduction of antimicrobial performance", "setting": "exhaust 80° C., 60 min, curing 180° C., curing dwell time 0.5 min", "result": 1.1, "unit": "Log"}, {"measurement": "Log reduction of antimicrobial performance", "setting": "exhaust 80° C., 60 min, curing 180° C., curing dwell time 1.0 min", "result": 1.3, "unit": "Log"}, {"measurement": "Log reduction of antimicrobial performance", "setting": "exhaust 80° C., 60 min, curing 180° C., curing dwell time 1.5 min", "result": 1.5, "unit": "Log"}, {"measurement": "Log reduction of antimicrobial performance", "setting": "exhaust 80° C., 60 min, curing 180° C., curing dwell time 2.0 min", "result": 3.8, "unit": "Log"}, {"measurement": "Log reduction of antimicrobial performance", "setting": "exhaust 80° C., 60 min, curing 180° C., curing dwell time 2.5 min", "result": 3.7, "unit": "Log"}, {"measurement": "Log reduction of antimicrobial performance", "setting": "exhaust 80° C., 60 min, curing 180° C., curing dwell time 3.0 min", "result": 3.5, "unit": "Log"}, {"measurement": "Log reduction of antimicrobial performance", "setting": "exhaust 80° C., 60 min, curing 190° C., curing dwell time 0.5 min", "result": 0.6, "unit": "Log"}, {"measurement": "Log reduction of antimicrobial performance", "setting": "exhaust 80° C., 60 min, curing 190° C., curing dwell time 1.0 min", "result": 0.9, "unit": "Log"}, {"measurement": "Log reduction of antimicrobial performance", "setting": "exhaust 80° C., 60 min, curing 190° C., curing dwell time 1.5 min", "result": 1.5, "unit": "Log"}, {"measurement": "Log reduction of antimicrobial performance", "setting": "exhaust 80° C., 60 min, curing 190° C., curing dwell time 2.0 min", "result": 2.79, "unit": "Log"}, {"measurement": "Log reduction of antimicrobial performance", "setting": "exhaust 80° C., 60 min, curing 190° C., curing dwell time 2.5 min", "result": 2.2, "unit": "Log"}, {"measurement": "Log reduction of antimicrobial performance", "setting": "exhaust 80° C., 60 min, curing 190° C., curing dwell time 3.0 min", "result": 1.1, "unit": "Log"}, {"measurement": "Log reduction of antimicrobial performance", "setting": "exhaust 80° C., 60 min, curing temperature 100 ° C.", "result": 0.21, "unit": "Log"}, {"measurement": "Log reduction of antimicrobial performance", "setting": "exhaust 80° C., 60 min, curing temperature 120 ° C.", "result": 0.32, "unit": "Log"}, {"measurement": "Log reduction of antimicrobial performance", "setting": "exhaust 80° C., 60 min, curing temperature 140 ° C.", "result": 0.99, "unit": "Log"}, {"measurement": "Log reduction of antimicrobial performance", "setting": "exhaust 80° C., 60 min, curing temperature 160 ° C.", "result": 1.04, "unit": "Log"}, {"measurement": "Log reduction of antimicrobial performance", "setting": "exhaust 80° C., 60 min, curing temperature 165 ° C.", "result": 1.12, "unit": "Log"}, {"measurement": "Log reduction of antimicrobial performance", "setting": "exhaust 80° C., 60 min, curing temperature 170 ° C.", "result": 1.59, "unit": "Log"}, {"measurement": "Log reduction of antimicrobial performance", "setting": "exhaust 80° C., 60 min, curing temperature 175 ° C.", "result": 2.05, "unit": "Log"}, {"measurement": "Log reduction of antimicrobial performance", "setting": "exhaust 80° C., 60 min, curing temperature 180 ° C.", "result": 2.78, "unit": "Log"}, {"measurement": "Log reduction of antimicrobial performance", "setting": "exhaust 80° C., 60 min, curing temperature 185 ° C.", "result": 2.79, "unit": "Log"}, {"measurement": "Log reduction of antimicrobial performance", "setting": "exhaust 80° C., 60 min, curing temperature 190 ° C.", "result": 2.8, "unit": "Log"}, {"measurement": "Log reduction of antimicrobial performance", "setting": "exhaust 80° C., 60 min, curing temperature 195 ° C.", "result": 2.82, "unit": "Log"}, {"measurement": "Log reduction of antimicrobial performance in 100 GSM Polyester fabric", "setting": "[1]", "result": 0.56, "unit": "Log"}, {"measurement": "Log reduction of antimicrobial performance in 100 GSM cotton fabric", "setting": "[1]", "result": 0.55, "unit": "Log"}, {"measurement": "Log reduction of antimicrobial performance in 300 GSM Polyester fabric", "setting": "[1]", "result": 0.54, "unit": "Log"}, {"measurement": "Log reduction of antimicrobial performance in 300 GSM cotton fabric", "setting": "[1]", "result": 0.57, "unit": "Log"}, {"measurement": "Log reduction of antimicrobial performance in 100 GSM Polyester fabric", "setting": "[2]", "result": 1.45, "unit": "Log"}, {"measurement": "Log reduction of antimicrobial performance in 100 GSM cotton fabric", "setting": "[2]", "result": 1.35, "unit": "Log"}, {"measurement": "Log reduction of antimicrobial performance in 300 GSM Polyester fabric", "setting": "[2]", "result": 1.48, "unit": "Log"}, {"measurement": "Log reduction of antimicrobial performance in 300 GSM cotton fabric", "setting": "[2]", "result": 1.35, "unit": "Log"}, {"measurement": "Log reduction of antimicrobial performance in 100 GSM Polyester fabric", "setting": "[3]", "result": 1.77, "unit": "Log"}, {"measurement": "Log reduction of antimicrobial performance in 100 GSM cotton fabric", "setting": "[3]", "result": 1.67, "unit": "Log"}, {"measurement": "Log reduction of antimicrobial performance in 300 GSM Polyester fabric", "setting": "[3]", "result": 1.79, "unit": "Log"}, {"measurement": "Log reduction of antimicrobial performance in 300 GSM cotton fabric", "setting": "[3]", "result": 1.67, "unit": "Log"}, {"measurement": "Log reduction of antimicrobial performance in 100 GSM Polyester fabric", "setting": "[4]", "result": 1.85, "unit": "Log"}, {"measurement": "Log reduction of antimicrobial performance in 100 GSM cotton fabric", "setting": "[4]", "result": 1.84, "unit": "Log"}, {"measurement": "Log reduction of antimicrobial performance in 300 GSM Polyester fabric", "setting": "[4]", "result": 1.85, "unit": "Log"}, {"measurement": "Log reduction of antimicrobial performance in 300 GSM cotton fabric", "setting": "[4]", "result": 1.87, "unit": "Log"}, {"measurement": "Log reduction of antimicrobial performance in 100 GSM Polyester fabric", "setting": "[5]", "result": 2.68, "unit": "Log"}, {"measurement": "Log reduction of antimicrobial performance in 100 GSM cotton fabric", "setting": "[5]", "result": 2.87, "unit": "Log"}, {"measurement": "Log reduction of antimicrobial performance in 300 GSM Polyester fabric", "setting": "[5]", "result": 2.65, "unit": "Log"}, {"measurement": "Log reduction of antimicrobial performance in 300 GSM cotton fabric", "setting": "[5]", "result": 2.88, "unit": "Log"}, {"measurement": "Log reduction of antimicrobial performance of each active ingredient", "setting": "exhaust 80° C., 60 min, dosage 1% o.w.f (test up to 5% o.w.f)", "result": 2.35, "unit": "Log"}, {"measurement": "Log reduction of antimicrobial performance of each active ingredient", "setting": "exhaust 80° C., 60 min, dosage 2% o.w.f", "result": 2.36, "unit": "Log"}, {"measurement": "Log reduction of antimicrobial performance of each active ingredient", "setting": "exhaust 80° C., 60 min, dosage 3% o.w.f", "result": 2.37, "unit": "Log"}, {"measurement": "Log reduction of antimicrobial performance of each active ingredient", "setting": "exhaust 80° C., 60 min, dosage 4% o.w.f", "result": 2.38, "unit": "Log"}, {"measurement": "Log reduction of antimicrobial performance of each active ingredient", "setting": "exhaust 80° C., 60 min, dosage 5% o.w.f", "result": 2.41, "unit": "Log"}, {"measurement": "Log reduction of antimicrobial performance of each active ingredient", "setting": "exhaust 80 ° C., solution dosage 1% o.w.f, process time 10 min", "result": 0.5, "unit": "Log"}, {"measurement": "Log reduction of antimicrobial performance of each active ingredient", "setting": "exhaust 80 ° C., solution dosage 1% o.w.f, process time 20 min", "result": 1, "unit": "Log"}, {"measurement": "Log reduction of antimicrobial performance of each active ingredient", "setting": "exhaust 80 ° C., solution dosage 1% o.w.f, process time 30 min", "result": 1.4, "unit": "Log"}, {"measurement": "Log reduction of antimicrobial performance of each active ingredient", "setting": "exhaust 80 ° C., solution dosage 1% o.w.f, process time 40 min", "result": 1.9, "unit": "Log"}, {"measurement": "Log reduction of antimicrobial performance of each active ingredient", "setting": "exhaust 80 ° C., solution dosage 1% o.w.f, process time 50 min", "result": 2.4, "unit": "Log"}, {"measurement": "Log reduction of antimicrobial performance of each active ingredient", "setting": "exhaust 80 ° C., solution dosage 1% o.w.f, process time 60 min", "result": 2.8, "unit": "Log"}, {"measurement": "Log reduction of antimicrobial performance of each active ingredient", "setting": "exhaust 80 ° C., solution dosage 1% o.w.f, process time 70 min", "result": 2.8, "unit": "Log"}, {"measurement": "Log reduction of antimicrobial performance of each active ingredient", "setting": "exhaust 80 ° C., solution dosage 1% o.w.f, process time 80 min", "result": 2.8, "unit": "Log"}, {"measurement": "Log reduction of antimicrobial performance of each active ingredient", "setting": "exhaust 80 ° C., solution dosage 1% o.w.f, process time 90 min", "result": 2.9, "unit": "Log"}, {"measurement": "Performance Test-Log reduction of antimicrobial performance", "setting": "curing 120° C.", "result": 0.02, "unit": "Log"}, {"measurement": "Performance Test-Log reduction of antimicrobial performance", "setting": "curing 140° C.", "result": 0.24, "unit": "Log"}, {"measurement": "Performance Test-Log reduction of antimicrobial performance", "setting": "curing 150° C.", "result": 0.31, "unit": "Log"}, {"measurement": "Performance Test-Log reduction of antimicrobial performance", "setting": "curing 160° C.", "result": 0.53, "unit": "Log"}]}
